Experimental data taken from patent US12023335B2, “Method for treating pancreatic cancer” (PTC THERAPEUTICS, INC., priority 2018, dated 2024).
Entries after “also recorded” stand apart in the source; their conditions may differ.

Tests used:
Aspc1 cells = assay: Active caspase 3 apoptosis flow cytometry in Aspc1 cells; format: cell-based, human; conditions: 24, 48, 72 hours, relative to vehicle (FIGS. 3a, 3b)
Protocol: For active Caspase-3 (ActCasp3) staining, the Caspase 3 (active) FITC Staining Kit (Abcam, ab65613) was used according to manufacturer's instructions. Cells were seeded in 12-well plates such that ˜16 hours later they would be approximately 50-60% confluent. […] Samples were analyzed on a BD LSR II™ and analyzed by FlowJo software. (FIG. 3a and FIG. 3b)

[1] = Compound 1 levels in plasma, quadriceps and PDA tissue of KPC mice; format: in vivo; conditions: 24 hours after single oral dose 10 mg/kg (FIG. 5a)
Protocol: Blood plasma and tissue samples to be used for analysis were immediately frozen on dry ice and stored at −80° C. until analysis. Concentrations of Compound 1 in samples were quantified using high-performance liquid chromatography with tandem mass spectrometry (LC-MS/MS). Compound 1 and its internal standard (deuterated Compound 1) were recovered by protein precipitation extraction from samples.
For the pharmacokinetic study that assessed plasma, quadriceps muscle, and tumor tissue following a single dose of Compound 1 the assay conditions were as follows (FIG. 5a):
Plasma: A standard curve was made to cover concentrations between 0.002 ug/mL and 6.0 ug/mL. the LLOQ for Compound 1 (either version) in plasma was 0.001 μg/mL
Quadriceps muscle: A standard curve was made to cover concentrations between 0.001 μg/g wet tissue and 3.0 μg/g wet tissue. The LLOQ for Compound 1 (either version) was 0.01 μg/g wet tissue.
Tumor tissue: A standard curve was made to cover concentrations between 0.001 μg/g wet tissue and 3.0 μg/g wet tissue. The LLOQ for Compound 1 (either version) was 0.02 μg/g wet tissue.

CYCLIN B1 = assay: Western blot for CYCLIN B1 on tumors from KPC mice; format: in vivo; conditions: 10 mg/kg; biopsy 48 hours before first dose vs necropsy 24 hours after third dose (FIGS. 5b, 5c)
Protocol: Western blotting was carried out on lysates isolated from treated cells. Cells were lysed using RIPA buffer (50 mM Tris, pH 7.4, 150 mM NaCl, 1% Nonidet P-40, 0.1% SDS, 0.5% deoxycholate) supplemented with cOmplete™ EDTA-free Protease Inhibitor Cocktail (Sigma, 11836170001) and Halt™ Phosphatase Inhibitor Cocktail (ThermoFisher, 78420). Lysates were quantified using the Pierce BCA Protein Assay Kit (ThermoFisher, 23227), diluted in SDS sample buffer, resolved by SDS-PAGE (15-30 μg/sample), and transferred onto PVDF membranes. Membranes were blocked with 5% w/v nonfat dry milk in TBS-T (0.1% Tween20) and primary antibodies were incubated overnight at 4° C., diluted in 5% BSA in TBS-T at the indicated concentrations. HRP-conjugated secondary antibodies were incubated in blocking buffer for 1 hour at room temperature before detection using Super Digital-ECL™ substrate solution (Kindle Biosciences, R1002). (FIG. 5b, FIG. 10a and FIG. 11b)

tubulin = assay: Immunocytochemistry of tubulin and DAPI in Aspc1 cells; format: cell-based, human; conditions: 24 hours, relative to vehicle (FIGS. 11c, 11d)
Protocol: Cells were seeded onto glass coverslips in 12-well plates. Coverslips were prepared by soaking in 1N HCl (60° C., 6 hours), washing in 70% ethanol, and coating with poly-l-lysine (Sigma, P5899) according to manufacturer's instructions. Cells were seeded such that they would be 50% confluent the following day. Cells were then treated with vehicle (DMSO, <0.003%) or 1 μM Compound 1 and incubated for 24 hours. Following treatment, cells were washed with TBS and free tubulin was extracted with Brinkley Buffer 1980 (80 mM PIPES pH 6.8, 1 mM MgCl2, 1 mM EGTA) supplemented with 4 mM EGTA and 0.5% Triton-X (30 seconds). After extraction, cells were fixed for 20 minutes in 4% formaldehyde diluted in Cytoskeleton Buffer (10 mM MES pH 6.1, 138 mM KCl, 3 mM MgCl2, 2 mM EGTA) supplemented with 0.32M sucrose. […]
Confocal imaging was performed using an A1 laser scanning confocal attachment on an Eclipse Ti microscope stand using a 60x/1.49 ApoTIRF oil-immersion objective and standard lasers and filter sets (Nikon Instruments, Melville, N.Y.). […] Images were visualized, analyzed, and prepared for publication using the Fiji distribution of ImageJ (Schindelin J, Arganda-Carreras I, Frise E, et al. Fiji: an open-source platform for biological-image analysis. Nature Methods 2012; 9:676-682). […]

[2] = target: T1, tubulin from porcine brain (Sus scrofa, UniProt P02550+P02554); assay: Cell-free tubulin polymerization assay; format: biochemical; conditions: 0.12, 0.37, 1.11, 3.33 and 10 μM (FIGS. 11e, 11f)
T1 construct: which uses >99% pure tubulin from porcine brain; purchased Cytoskeleton #BK011P; host or cells: porcine brain (tissue-purified)
T1 sequence (P02554 whole entry): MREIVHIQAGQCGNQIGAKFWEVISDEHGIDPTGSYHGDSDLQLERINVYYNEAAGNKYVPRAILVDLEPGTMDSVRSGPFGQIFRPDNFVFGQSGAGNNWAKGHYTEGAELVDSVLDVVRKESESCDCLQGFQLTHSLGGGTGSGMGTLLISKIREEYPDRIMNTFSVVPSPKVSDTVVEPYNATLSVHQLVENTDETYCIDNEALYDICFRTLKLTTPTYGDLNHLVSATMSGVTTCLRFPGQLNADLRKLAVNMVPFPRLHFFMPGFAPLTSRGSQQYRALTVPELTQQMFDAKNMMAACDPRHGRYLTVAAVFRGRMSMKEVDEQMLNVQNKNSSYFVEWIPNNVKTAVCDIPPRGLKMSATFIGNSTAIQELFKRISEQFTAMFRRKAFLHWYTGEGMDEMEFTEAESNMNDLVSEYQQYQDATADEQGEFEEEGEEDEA
T1 sequence (P02550 whole entry): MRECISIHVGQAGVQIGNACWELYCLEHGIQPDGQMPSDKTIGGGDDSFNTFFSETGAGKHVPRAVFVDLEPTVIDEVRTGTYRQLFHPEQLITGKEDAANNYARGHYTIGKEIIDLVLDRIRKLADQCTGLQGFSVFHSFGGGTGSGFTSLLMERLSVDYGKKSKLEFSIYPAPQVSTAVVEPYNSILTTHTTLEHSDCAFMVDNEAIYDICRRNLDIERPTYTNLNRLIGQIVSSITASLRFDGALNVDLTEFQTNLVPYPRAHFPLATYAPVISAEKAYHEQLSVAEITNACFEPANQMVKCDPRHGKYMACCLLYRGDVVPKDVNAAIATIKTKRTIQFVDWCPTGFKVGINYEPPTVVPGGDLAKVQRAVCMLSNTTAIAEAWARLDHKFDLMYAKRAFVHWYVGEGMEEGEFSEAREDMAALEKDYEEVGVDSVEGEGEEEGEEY
Protocol: Assays were carried out according to manufacturer's recommendations using the fluorescence-based tubulin polymerization assay kit from Cytoskeleton (#BK011P) which uses >99% pure tubulin from porcine brain. All drugs used were dissolved in DMSO and then diluted in ultrapure water to 10× final concentration. Final percentage of DMSO was kept constant for all samples. Tubulin was prepared by resuspension at 2 mg/mL in 80 mM PIPES pH 6.9, 2.0 mM MgCl2, 0.5 mM EGTA, 1.0 mM GTP, 15% glycerol, and 10 μM fluorescent reporter. All drug samples (10×) were added to a pre-warmed half-area 96-well plate (Corning Costar, 3686) in duplicate, and then warmed to 37° C. for 1 min. Tubulin (50 μL/well) was then added to all wells, and the plate was placed in a plate reader pre-warmed to 37° C. The plate was mixed by medium, orbital shaking for 5 seconds, and fluorescence measured every 60 seconds for 90 minutes (Ex: 340-360+/−20 nm, Em: 410-460 nm+/−20 nm) in a BioTek Synergy 2 plate reader. Polymerization rates (fluorescence units/minute) were determined by measuring the maximal slope (by linear regression) of the linear portion of the growth phase of the polymerization curve. (FIG. 11e and FIG. 11f)

Cc1nc2ccc(F)cc2n1-c1nc(N)c(F)c(Nc2ccc(C(F)(F)F)cc2)n1 [Compound 1, 5-fluoro-2-(6-fluoro-2-methyl-1H-benzo[d]imidazol-1-yl)-N4-[4-(trifluoromethyl)phenyl]pyrimidine-4,6-diamine]
total apoptotic Aspc1 cells (active caspase 3+) (Aspc1 cells): time-dependent increase in cell biomarkers that indicate a corresponding increase in cell apoptosis
distribution into PDA tumor tissue [1]: effective biodistribution into tumor tissues; also recorded: distributes into PDA tissues
CYCLIN B1 normalized to VINCULIN in tumors (CYCLIN B1): consistent reduction in Cyclin B1 relative to Vinculin
tubulin staining in Aspc1 cells (tubulin): significant reduction in tubulin formation
tubulin polymerization (fluorescence units/minute) [2]: function as a microtubule polymerization inhibitor; also recorded: dose-dependent decrease in tubulin polymerization; also recorded: directly inhibits microtubule formation
